The source of these data is patent publication US20260053861A1, “CELL COMPOSITIONS AND METHODS OF USING THE SAME” (THE REGENTS OF THE UNIVERSITY OF CALIFORNIA, priority 2022, published 2026).

Where a name gives a salt, the structure may show the parent alone.

One experiment has as its system hPSC-SCs.
Details: not given
For `CC[C@H](C)[C@H]1O[C@]2(CC[C@@H]1C)C[C@@H]1C[C@@H](C/C=C(\C)[C@@H](O[C@H]3C[C@H](OC)[C@@H](O[C@H]4C[C@H](OC)[C@@H](O)[C@H](C)O4)[C@H](C)O3)[C@@H](C)/C=C/C=C3\CO[C@@H]4[C@H](O)C(C)=C[C@@H](C(=O)O1)[C@]34O)O2` [Ivermectin], the z.score.t is −1.866.
`CCN1C[C@]2(C)CC[C@H](O)[C@]34C1[C@@H](C[C@H]23)[C@@]1(O)C[C@H](OC)[C@H]2C[C@@H]4[C@@H]1[C@H]2O` [Karakoline] displayed a z.score.t of 1.53.
`COC1=CC(=O)O[C@@H](/C=C/c2ccccc2)C1` [Kawain] returned a z.score.t of 0.9109.
The same measure, in the same setting: then `Cl.OC1CCCCC1N1CCC(c2ccccc2)CC1` (stereo not drawn) [L(−)-vesamicol hydrochloride], with 0.6964.

Staying with this experiment, now noted: HTS viability of hPSC-SCs in the presence of 30 mM glucose; Prestwick library; Table S4.
As to `Cc1cc(C(=O)NNCc2ccccc2)no1` [Isocarboxazid], the z.score.t is on record as −0.9569.
On the same count and under the same terms, to `Clc1ccc(C(Cn2ccnc2)OCc2c(Cl)cccc2Cl)c(Cl)c1` (stereo not shown) [Isoconazole] belongs −1.91; to `COc1ccc2c(c1O)-c1c(OC)c(OC)cc3c1[C@H](C2)N(C)CC3` [Isocorydine (+)], 1.845.
`CC(=O)OCC(=O)[C@@]1(O)CC[C@H]2[C@@H]3CCC4=CC(=O)C=C[C@]4(C)[C@@]3(F)[C@@H](O)C[C@@]21C` [Isoflupredone acetate]: the z.score.t is reported as −0.3156.
Still for that read-out and setting: then `CNC(C)CCC=C(C)C.CNC(C)CCC=C(C)C.O=C(O)[C@@H](O)[C@H](O)[C@H](O)[C@@H](O)C(=O)O` [Isometheptene mucate], with 1.27.
For the compound `NNC(=O)c1ccncc1` [Isoniazid], the z.score.t is on record as 0.5041.
With `CC(C)[N+](C)(CCC(C(N)=O)(c1ccccc1)c1ccccc1)C(C)C` [Isopropamide iodide], the z.score.t turned out to be 0.3675.
Same read-out and setting: then `Cc1c(NC(C)C)c(=O)n(-c2ccccc2)n1C.Cl` [Isopyrin hydrochloride], with −0.2359; and `CC1=C(/C=C/C(C)=C/C=C/C(C)=C\C(=O)O)C(C)(C)CCC1` [Isotretinoin], with 0.4346; and `Cc1cc(NC(=O)C2=C(O)c3ccccc3S(=O)(=O)N2C)no1` [Isoxicam], with 1.24.
Still for that read-out and setting: then `CC(COc1ccccc1)NC(C)C(O)c1ccc(O)cc1` (stereo not shown) [Isoxsuprine hydrochloride], with −0.1687; and `COC(=O)C1=C(C)NC(C)=C(C(=O)OC(C)C)C1c1cccc2nonc12` (stereo not shown) [Isradipine], with 0.6428.
Regarding `CO[C@@H]1[C@@H](O[C@@H]2O[C@H](C)[C@@H](O[C@H]3C[C@@](C)(O)[C@@H](OC(=O)CC(C)C)[C@H](C)O3)[C@H](N(C)C)[C@H]2O)[C@@H](CC=O)C[C@@H](C)[C@@H](O)/C=C/C=C/C[C@@H](C)OC(=O)C[C@H]1OC(C)=O` [Josamycin], the z.score.t is −0.827.
On the same count and under the same terms, then `O=c1c(O)c(-c2ccc(O)cc2)oc2cc(O)cc(O)c12` [Kaempferol], with −1.014; and `NC[C@H]1O[C@H](O[C@H]2[C@H](O)[C@@H](O[C@H]3O[C@H](CO)[C@@H](O)[C@H](N)[C@H]3O)[C@H](N)C[C@@H]2N)[C@H](O)[C@@H](O)[C@@H]1O.O=S(=O)(O)O` [Kanamycin A sulfate], with 0.07052.
On the same count and under the same terms, then `CC(=O)N1CCN(c2ccc(OCC3COC(Cn4ccnc4)(c4ccc(Cl)cc4Cl)O3)cc2)CC1` (stereo not shown) [Ketoconazole], with 1.669; and `CC(C(=O)O)c1cccc(C(=O)c2ccccc2)c1` (stereo not shown) [Ketoprofen], with −1.014.
In the case of `O=C(c1ccccc1)c1ccc2n1CCC2C(=O)O` (stereo not shown) [Ketorolac tromethamine], the z.score.t is on record as 0.8465.
On the same count and under the same terms, to `CN1CCC(=C2c3ccccc3CC(=O)c3sccc32)CC1` [Ketotifen fumarate] belongs −0.7415; to `COc1c2occc2c(OC)c2c(=O)cc(C)oc12` [Khellin], 0.7913.
Still for that read-out and setting: then `CC(CCc1ccccc1)NCC(O)c1ccc(O)c(C(N)=O)c1` (stereo not shown) [Labetalol hydrochloride], with 0.7665.
